Test results published in patent US6787128B2, “Structure-improving hair care agents” (Henkel Kommanditgesellschaft auf Aktien, priority 2000, dated 2004).
Marks after values point to notes of the source that are not given here.

Tests used:
[1] = test system: Human hair (Alkinco 6634); test: HP-DSC keratin melting point after aftertreatment with conditioner (Application Example 3.1) containing pyridoxine in various concentrations
Source text: (§1) HP-DSC (High-Pressure Differential Scanning Calorimetry)
(§2) Thermoanalytical investigations are particularly suitable for characterizing two-phase systems to which human hair fibers as fibrous keratins with their crystalline α-helix component and amorphous matrix component also belong. On the one hand, glass transitions and aging behavior of the amorphous matrix can be investigated, on the other hand the melting behavior of the crystalline helical phase provides important information. Thermoanalytical studies were described for the first time in 1899. The first differential thermoanalyses (DTA) of protein fibers were carried out towards the end of the fifties (F. Schwenker, J. H. Dusenbury, Text. Res. J. 1963, 30, pages 800 et seq; W. D. Felix, M. A. McDowall, H. Eyring, ibid. (1963), 33, pages 465 et seq). In the following years, various thermoanalytical measuring techniques, such as DTA, HP-DTA (high-pressure DTA) and DSC (differential scanning calorimetry) were applied to keratin fibers, for example to investigate the phenomenon of supercontraction, α-β-phase transitions of the helices or denaturing processes. Recently, the method of IIP-DSC was used to study keratin fibers, more particularly at the Deutsches Wollforschungsinstitut (German Wool Research Institute) in Aachen (F. J. Wortmann, H. Deutz, J. Appl. Polym. Sci. 1993, 48, pp. 137 et seq.). IIP-DSC rules out the problems associated with pyrolytic effects which occur in conventional DSC and the problems with data acquisition and interpretation by which DTA is attended. DSC measurements are carried out on keratins which are encapsulated with water in commercially obtainable pressure-tight measuring capsules. In the keratin/water system, a high water vapor pressure from which the HP-DSC analysis derives builds up in the encapsulated steel crucibles on heating to >100° C. […]
(§3) Accordingly, both structural and chemical states and changes in fiber keratins and particularly in human hair fibers can be detected by dynamic differential scanning calorimetry (DSC). Under precisely defined test conditions, the processes detectable by calorimetry in human hair fibers can be recorded in the form of thermograms and used in regard to peak positions, structures and areas as an indicator for influencing order/disorder transitions through changes in inner and/or outer parameters produced, for example, by cosmetic treatment of the hair fibers. In other words, information on the strength of or damage to human hair fibers can be obtained from the endothermal peaks recorded in the thermogram of human hair fibers on the basis of peak position (transition point) and peak area (transition enthalpy). […]

[2] = test system: Human hair (Alkinco 6634); test: HP-DSC keratin melting point of permanent-waved hair after 1% aqueous active substance, Alkinco 6634; conditions: treated 10 mins. with 1% aqueous solution of active substance, rinsed, dried
Source text: as §1, §2, §3

[3] = test system: Human hair (Alkinco 6633); test: HP-DSC keratin melting point of permanent-waved hair after 1% aqueous active substance, Alkinco 6633; conditions: for Keratin melting point for Alkinco 6633: permanent-waved hair, treated 10 mins. with 1% aqueous solution of active substance, rinsed, dried
Source text: as §1
Thermoanalytical investigations are particularly suitable for characterizing two-phase systems to which human hair fibers as fibrous keratins with their crystalline α-helix component and amorphous matrix component also belong. On the one hand, glass transitions and aging behavior of the amorphous matrix can be investigated, on the other hand the melting behavior of the crystalline helical phase provides important information. Thermoanalytical studies were described for the first time in 1899. The first differential thermoanalyses (DTA) of protein fibers were carried out towards the end of the fifties (F. Schwenker, J. H. Dusenbury, Text. Res. J. […], 30, pages 800 et seq; W. D. Felix, M. A. McDowall, H. Eyring, ibid. (1963), 33, pages 465 et seq). In the following years, various thermoanalytical measuring techniques, such as DTA, HP-DTA (high-pressure DTA) and DSC (differential scanning calorimetry) were applied to keratin fibers, for example to investigate the phenomenon of supercontraction, α-β-phase transitions of the helices or denaturing processes. Recently, the method of IIP-DSC was used to study keratin fibers, more particularly at the Deutsches Wollforschungsinstitut (German Wool Research Institute) in Aachen (F. J. Wortmann, H. Deutz, J. Appl. Polym. Sci. 1993, 48, pp. 137 et seq.). IIP-DSC rules out the problems associated with pyrolytic effects which occur in conventional DSC and the problems with data acquisition and interpretation by which DTA is attended. DSC measurements are carried out on keratins which are encapsulated with water in commercially obtainable pressure-tight measuring capsules. In the keratin/water system, a high water vapor pressure from which the HP-DSC analysis derives builds up in the encapsulated steel crucibles on heating to >100° C. The crucial difference between the HP-DSC thermograms of human hair fibers and normal DSC thermograms is that the endothermal peaks which reproduce the transition point and the transition enthalpy are shifted by ca. 90° C. to lower temperatures. This derives from the fact that, after diffusing into the hair fibers, the water reduces protein stability by weakening and splitting hydrogen bridge bonds and salt bonds so that the “gluing temperature” of the keratins is reduced. If only hydrogen bridges and salt bridges are dissolved by the supercontracting agent, such as water, the thermal effect is reversible (supercontraction). However, the process becomes irreversible when covalent bonds, such as disulfide bridges for example, are split. […]
as §3

[4] = Fastness to washing of oxidation hair color, overall color difference DE* after 6 washes; parameters: species or system human; conditions: colored (Poly Diadem 718), 5 mins. rinse (Application Example 3.2) containing 2% active substance, washed 6x, smaller DE* = higher fastness
Procedure: Human hair fibers (Kerling Naturweiβ) were used. The hair fibers were intentionally damaged at their tips (2× blonding and 2× permanent waving) in order to simulate seriously damaged hair. […] After rinsing and drying, […] measurements (hair shafts and tips separated) were carried out and were repeated after 6 washes. […] The smaller DE* is, the smaller the loss of color by shampooing and the higher the fastness to washing.

Cc1ncc(CO)c(CO)c1O [Pyridoxine, pyridoxine]
Keratin melting point Alkinco 6634 ([1]; conditioner (Application Example 3.1) + 0.2% vitamin B6, 2 mins. aftertreatment of permanent-waved hair): 146.2 °C | Keratin melting point Alkinco 6634 ([1]; conditioner (Application Example 3.1) + 0.5% vitamin B6, 2 mins. aftertreatment of permanent-waved hair): 146.5 °C | Keratin melting point Alkinco 6634 ([1]; conditioner (Application Example 3.1) + 1.0% vitamin B6, 2 mins. aftertreatment of permanent-waved hair): 147.4 °C | significance of (re)structuring effect by comparison with the reference sample ([1]; conditioner + 0.2% vitamin B6, Alkinco 6634): satistically significant | Keratin melting point for Alkinco 6634 [2]: 152.1 °C | increase in melting point ([3]; Alkinco 6633, 1% in water, versus permanent-waved reference sample, not statistically highly significant): 0.5 °C | Keratin melting point for Alkinco 6633 [3]: 144* ° C. | DE* for normal weathered shafts [4]: 1.8 | DE* for seriously damaged tips ([4]; tips damaged 2x blonding and 2x permanent waving): 5.8

Cc1ncc(CO)c(C=O)c1O [Pyridoxal, pyridoxal]
Keratin melting point for Alkinco 6634 [2]: 152 °C | Keratin melting point for Alkinco 6633 [3]: 147.7 °C

Cc1ncc(CO)c(CN)c1O [Pyridoxamine, pyridoxamine]
Keratin melting point for Alkinco 6634 [2]: 152.2 °C | Keratin melting point for Alkinco 6633 [3]: 147.9 °C

Cc1ncc(COP(=O)(O)O)c(C=O)c1O [Pyridoxal-5-phosphate, pyridoxal-5′-phosphate]
Keratin melting point for Alkinco 6634 [2]: 152.7 °C | Keratin melting point for Alkinco 6633 [3]: 148.3 °C
